Tests used:
Acetylcholinesterase [1] = biological target: Acetylcholinesterase (Homo sapiens, UniProt P22303)
Description: Compound was evaluated for the inhibition of acetylcholinesterase (AChE) in human erythrocytes

Acetylcholinesterase [2] = biological target: T1, Acetylcholinesterase (Torpedo californica, UniProt P04058); test: Compound was evaluated for competitive inhibition constant of acetylcholinesterase (AChE) from Torpedo californica; parameters: species or system Tetronarce californica
Acetylcholinesterase [3] = biological target: T2, Acetylcholinesterase (Bos taurus, UniProt P23795)
T2 sequence (P23795 whole entry): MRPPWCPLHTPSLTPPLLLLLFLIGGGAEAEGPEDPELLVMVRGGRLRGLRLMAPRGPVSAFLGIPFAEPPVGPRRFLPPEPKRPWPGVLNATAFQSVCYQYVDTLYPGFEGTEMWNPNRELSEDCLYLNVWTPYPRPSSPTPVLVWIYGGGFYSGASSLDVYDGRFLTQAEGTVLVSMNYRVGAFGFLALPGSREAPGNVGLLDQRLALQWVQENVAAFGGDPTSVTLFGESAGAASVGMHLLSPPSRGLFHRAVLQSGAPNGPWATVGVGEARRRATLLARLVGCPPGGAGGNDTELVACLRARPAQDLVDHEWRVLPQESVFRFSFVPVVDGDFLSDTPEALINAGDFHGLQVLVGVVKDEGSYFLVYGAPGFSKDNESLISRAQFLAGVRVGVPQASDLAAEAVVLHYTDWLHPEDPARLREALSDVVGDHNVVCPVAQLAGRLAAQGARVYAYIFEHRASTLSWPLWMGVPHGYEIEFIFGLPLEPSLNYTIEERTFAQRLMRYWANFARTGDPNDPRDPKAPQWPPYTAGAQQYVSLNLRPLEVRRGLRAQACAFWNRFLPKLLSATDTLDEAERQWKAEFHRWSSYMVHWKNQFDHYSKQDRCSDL
Description: Compound was evaluated for the inhibition of acetylcholinesterase (AChE) in bovine brain

Acetylcholinesterase [4] = biological target: T1, Acetylcholinesterase; test: Compound was evaluated for the inhibition of acetylcholinesterase in Torpedo californica; parameters: species or system Tetronarce californica
Acetylcholinesterase [5] = biological target: T3, Acetylcholinesterase (Electrophorus electricus, UniProt O42275)
T3 sequence (O42275 whole entry): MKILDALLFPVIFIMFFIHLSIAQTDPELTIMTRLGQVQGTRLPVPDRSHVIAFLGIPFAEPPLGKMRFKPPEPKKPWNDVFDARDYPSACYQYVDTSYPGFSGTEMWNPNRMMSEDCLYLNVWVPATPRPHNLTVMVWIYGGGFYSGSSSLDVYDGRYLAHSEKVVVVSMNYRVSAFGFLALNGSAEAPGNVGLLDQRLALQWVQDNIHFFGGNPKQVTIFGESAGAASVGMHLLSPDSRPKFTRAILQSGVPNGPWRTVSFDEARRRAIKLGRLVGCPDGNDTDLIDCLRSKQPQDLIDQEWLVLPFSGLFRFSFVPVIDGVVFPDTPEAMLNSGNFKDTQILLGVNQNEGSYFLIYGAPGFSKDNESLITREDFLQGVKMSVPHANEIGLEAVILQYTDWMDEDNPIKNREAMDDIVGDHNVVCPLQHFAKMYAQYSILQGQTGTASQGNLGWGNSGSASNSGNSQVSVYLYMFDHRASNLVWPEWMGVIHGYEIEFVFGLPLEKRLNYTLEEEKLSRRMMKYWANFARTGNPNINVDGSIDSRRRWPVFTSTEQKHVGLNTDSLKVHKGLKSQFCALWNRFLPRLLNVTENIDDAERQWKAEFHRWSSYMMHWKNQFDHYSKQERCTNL
Description: Compound was evaluated for the inhibition of acetylcholinesterase (AChE) in electric eel

Acetylcholinesterase [6] = biological target: T2, Acetylcholinesterase; test: Compound was evaluated for the inhibition of acetylcholinesterase (AChE) in bovine erythrocytes; assay type: cell-based
[7] = biological target: Acetylcholinesterase (Torpedo californica) (UniProt P04058); test: Compound was evaluated for non-competitive inhibition constant of acetylcholinesterase (AChE) from Torpedo californica; conditions: Tetronarce californica
Sequence of Acetylcholinesterase (Torpedo californica) (P04058 22-564 limits assumed): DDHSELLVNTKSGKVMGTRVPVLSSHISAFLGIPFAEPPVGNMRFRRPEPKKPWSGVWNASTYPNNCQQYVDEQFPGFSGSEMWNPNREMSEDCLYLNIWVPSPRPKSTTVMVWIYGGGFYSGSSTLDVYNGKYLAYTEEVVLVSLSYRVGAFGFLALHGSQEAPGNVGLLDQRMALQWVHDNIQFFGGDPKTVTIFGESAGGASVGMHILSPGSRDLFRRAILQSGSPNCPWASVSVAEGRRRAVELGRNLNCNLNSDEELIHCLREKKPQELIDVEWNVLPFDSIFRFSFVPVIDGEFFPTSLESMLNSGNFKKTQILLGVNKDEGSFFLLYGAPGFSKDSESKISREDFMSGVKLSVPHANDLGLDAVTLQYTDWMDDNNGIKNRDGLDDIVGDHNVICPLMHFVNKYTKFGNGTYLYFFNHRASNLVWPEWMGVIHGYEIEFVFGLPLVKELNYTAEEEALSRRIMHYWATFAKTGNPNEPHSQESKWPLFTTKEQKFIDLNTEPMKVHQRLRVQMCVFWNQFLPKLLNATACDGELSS

Acetylcholinesterase [8] = biological target: T1, Acetylcholinesterase
Description: Compound was evaluated for the inhibition of acetylcholinesterase (AChE) in Torpedo californica

Acetylcholinesterase [9] = biological target: T2, Acetylcholinesterase; remark: listed apart in the source
Acetylcholinesterase [10] = biological target: T3, Acetylcholinesterase; test: Compound was evaluated for the inhibition of acetylcholinesterase in electric eel

T1 sequence (P04058 whole entry): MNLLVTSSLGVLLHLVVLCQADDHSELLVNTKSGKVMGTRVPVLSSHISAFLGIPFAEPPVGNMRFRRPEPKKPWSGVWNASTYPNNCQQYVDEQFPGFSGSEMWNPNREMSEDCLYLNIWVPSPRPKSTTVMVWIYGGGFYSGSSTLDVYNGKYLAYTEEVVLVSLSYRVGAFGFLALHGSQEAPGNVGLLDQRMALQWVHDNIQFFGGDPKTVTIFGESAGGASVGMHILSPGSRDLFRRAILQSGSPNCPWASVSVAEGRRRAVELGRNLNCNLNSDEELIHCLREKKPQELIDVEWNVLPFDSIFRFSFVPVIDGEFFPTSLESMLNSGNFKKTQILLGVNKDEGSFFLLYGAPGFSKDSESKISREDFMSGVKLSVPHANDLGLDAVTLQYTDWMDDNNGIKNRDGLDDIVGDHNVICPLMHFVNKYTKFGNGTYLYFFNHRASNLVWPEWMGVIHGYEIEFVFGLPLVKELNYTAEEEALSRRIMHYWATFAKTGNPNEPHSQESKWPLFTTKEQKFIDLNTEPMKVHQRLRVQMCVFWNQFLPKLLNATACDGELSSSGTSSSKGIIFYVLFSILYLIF
Sequence of Acetylcholinesterase (Homo sapiens, UniProt P22303) (P22303 whole entry): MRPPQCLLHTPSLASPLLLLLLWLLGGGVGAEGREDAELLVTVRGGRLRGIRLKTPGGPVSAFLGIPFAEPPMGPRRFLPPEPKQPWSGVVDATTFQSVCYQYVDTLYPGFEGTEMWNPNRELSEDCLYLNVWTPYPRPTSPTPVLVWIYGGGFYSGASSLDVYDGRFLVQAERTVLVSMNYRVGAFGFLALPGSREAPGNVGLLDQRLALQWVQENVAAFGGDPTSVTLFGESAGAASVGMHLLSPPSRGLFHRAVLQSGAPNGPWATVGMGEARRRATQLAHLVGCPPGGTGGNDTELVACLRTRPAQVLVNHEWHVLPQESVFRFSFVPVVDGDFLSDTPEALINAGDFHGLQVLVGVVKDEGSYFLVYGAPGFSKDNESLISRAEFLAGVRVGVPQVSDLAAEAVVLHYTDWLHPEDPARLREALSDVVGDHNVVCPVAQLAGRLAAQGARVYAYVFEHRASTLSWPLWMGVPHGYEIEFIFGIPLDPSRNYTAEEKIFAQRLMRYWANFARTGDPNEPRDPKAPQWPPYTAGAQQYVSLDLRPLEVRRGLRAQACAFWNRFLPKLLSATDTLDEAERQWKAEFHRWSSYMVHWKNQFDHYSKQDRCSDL

| SMILES | IC50 (Acetylcholinesterase [1]) | Ki (Acetylcholinesterase [2]) | IC50 (Acetylcholinesterase [3]) | IC50 (Acetylcholinesterase [4]) | IC50 (Acetylcholinesterase [5]) | IC50 (Acetylcholinesterase [6]) | KI' [7] | IC50 (Acetylcholinesterase [8]) | IC50 (Acetylcholinesterase [9]) | IC50 (Acetylcholinesterase [10]) |
| --- | --- | --- | --- | --- | --- | --- | --- | --- | --- | --- |
| CN(C)c1ccc(CC(=O)NCCCCCCCCNC23CC4CC(CC(C4)C2)C3)cc1 | > 100 µM | 5.5 µM | > 100 µM | 10 µM | 28 µM | > 100 µM | 10 µM | – | – | – |
| CN(C)c1ccc(CC(=O)NCCCCCCCCCCCNC23CC4CC(CC(C4)C2)C3)cc1 | – | 2.1 µM | – | – | – | – | 5.2 µM | – | – | – |
| CN(C)c1ccc(CC(=O)NCCCCCCCCCCCCNC23CC4CC(CC(C4)C2)C3)cc1 | > 100 µM | 1.8 µM | 20 µM | – | 8.9 µM | – | 4.1 µM | 3.3 µM | 19 µM | – |
| CN(C)c1ccc(CC(=O)NCCCCCCCCCCNC23CC4CC(CC(C4)C2)C3)cc1 | > 100 µM | 2.5 µM | 77 µM | 5.3 µM | – | – | 5.3 µM | – | 95 µM | 14 µM |
| CN(C)c1ccc(CC(=O)NCCCCCCCCCNC23CC4CC(CC(C4)C2)C3)cc1 | – | 3.4 µM | – | – | – | – | 7 µM | – | – | – |
| CN(C)c1ccc(CC(=O)NCCCCCCCNC23CC4CC(CC(C4)C2)C3)cc1 | – | 7 µM | – | – | – | – | 13 µM | – | – | – |

— ChEMBL document CHEMBL1131645, “Synthesis and activity studies of N-[omega-N'-(adamant-1'-yl)aminoalkyl]- 2-(4'-dimethylaminophenyl)acetamides: in the search of selective inhibitors for the different molecular forms of acetylcholinesterase” (Bioorg Med Chem Lett, 1998)
